In US7943786B2, “Process for preparing amorphous (4R-cis)-6-[2-[3-phenyl-4-(phenylcarbamoyl)-2-(4-fluorophenyl)-5-(1-methylethyl)-pyrrol-1-yl]-ethyl]-2,2-dimethyl-[1,3]-dioxane-4-yl-acetic acid” (priority 2003, dated 2011):

What was measured:
Assay type in all cases: physicochemical
[1] = Comparison of solubility of amorphous and crystalline form in aprotic organic solvents; conditions: e.g. diisopropyl ether, methyl cyclohexane, isopropanol
[2] = Dissolution in tetrahydrofuran (clarity of solution)
[3] = Solubility in water

CC(C)c1c(C(=O)Nc2ccccc2)c(-c2ccccc2)c(-c2ccc(F)cc2)n1CC[C@@H]1C[C@H](CC(=O)OC(C)(C)C)OC(C)(C)O1 [amorphous compound of the formula I, (4R-cis)-6-[2-[3-phenyl-4-(phenylcarbamoyl)-2-(4-fluorophenyl)-5-(1-methylethyl)-pyrrol-1-yl]-ethyl]-2,2-dimethyl-[1,3]-dioxane-4-yl-acetic acid-tertiary butyl ester]
solubility of amorphous versus crystalline form [1]: better soluble | appearance of solution on dissolution in THF [2]: perfectly clear solution

CC(C)c1c(C(=O)Nc2ccccc2)c(-c2ccccc2)c(-c2ccc(F)cc2)n1CC[C@@H]1C[C@H](CC(=O)OC(C)(C)C)OC(C)(C)O1 [compound of the formula I, (4R-cis)-6-[2-[3-phenyl-4-(phenylcarbamoyl)-2-(4-fluorophenyl)-5-(1-methylethyl)-pyrrol-1-yl]-ethyl]-2,2-dimethyl-[1,3]-dioxane-4-yl-acetic acid-tertiary butyl ester]
solubility in water [3]: very poor solubility in water or is practically insoluble in water

CC(C)c1c(C(=O)Nc2ccccc2)c(-c2ccccc2)c(-c2ccc(F)cc2)n1CC[C@@H]1C[C@H](CC(=O)OC(C)(C)C)OC(C)(C)O1 [crystalline compound of the formula I, (4R-cis)-6-[2-[3-phenyl-4-(phenylcarbamoyl)-2-(4-fluorophenyl)-5-(1-methylethyl)-pyrrol-1-yl]-ethyl]-2,2-dimethyl-[1,3]-dioxane-4-yl-acetic acid-tertiary butyl ester]
appearance of solution on dissolution in THF [2]: some dimness appeared
